From US8008354B2, “Death receptor sensitizing compounds and methods of use therefor” (Burnham Institute for Medical Research, priority 2006, dated 2011)

Tests used:
[1] = system: PC-3, DU-145, LNCaP, T47D, MB-MDA-468 and OVCAR-3 cells; test: MTS viability of additional malignant cell lines under adherent conditions with or without CH-11; type: cell-based
Protocol: FIG. 14. Tumor cell sensitivity to anoikis correlates with sensitivity to Fas-mediated apoptosis. PC-3, DU-145, and LNCaP prostate, T47D and MB-MDA-468 breast, and OVCAR-3 ovarian cancer cells were cultured under adherent conditions with increasing concentrations of 5809354, in the presence or absence of Fas-activating antibody (CH-11, 100 ng/mL). Thirty hours after incubation, cell viability was determined using the MTS assay. Cell lines were also cultured under suspension conditions in the presence or absence of 5809354. Thirty hours after incubation, equal volumes of suspension-cultured cells were replated in a colony formation assay. Data represents the mean±SEM percent of viable cells or colonies compared to untreated controls.
Cell viability apoptosis, colony formation, and caspase activation assays. Cell viability was assessed using the MTS reduction assay (Promega, Madison, Wis., USA) according to the manufacturer's protocols and as described in Schimmer et al. (2006). Apoptosis was measured by flow cytometry to detect cell surface annexin V expression and propidium iodide (PI) uptake (Biovision, Mountain View, Calif., USA) as described in Carter et al. (2005). […] Clonogenic growth after suspension culture was measured using colony formation assays. […] Colonies were fixed, stained with methylene blue, and counted. […]

PPC-1 cells = test: MTS viability of adherent PPC-1 cells with or without CH-11, thirty hours; type: cell-based, human; conditions: CH-11 100 ng/mL
Protocol: FIG. 13. Small molecule down-regulation of FLIP sensitizes prostate cancer cells to anoikis. (A) PPC-1 cells were seeded overnight in adherent conditions and then treated with increasing concentrations of 5809354 for 16 hours. After incubation, cells were harvested. Total cellular RNA was extracted and mRNA levels of the long isoform of FLIP (FLIPL), the short isoform of FLIP (FLIPS), or rRNA levels of 18S were detected by real-time RT-PCR. Data were normalized using the ΔΔCT method and expressed as the mean±SEM percent of […] expression relative to untreated controls. (B) PPC-1 cells were cultured and treated as in panel A. Total cellular protein was isolated and analyzed by SDS-PAGE immunoblotting using anti-FLIP and anti-Actin antibodies. […] Thirty hours after incubation, cell viability was determined using the MTS assay. […] After incubation, apoptosis was measured by flow cytometry to detect cell surface annexin V expression and PI. […] (E) Cells were harvested, fixed, stained with DAPI, and nuclear morphology analyzed by fluorescence microscopy. […] One week later, cells were stained with methylene blue and the number of colonies counted. […]
Cell viability apoptosis, colony formation, and caspase activation assays. Cell viability was assessed using the MTS reduction assay (Promega, Madison, Wis., USA) according to the manufacturer's protocols and as described in Schimmer et al. (2006). […]

Q: What does the source list for “4-(4-chloro-2-methylphenoxy)-N-hydroxybutanamide [compound 5809354]”?
A: sensitization to CH-11 ([1]; LNCaP or MB-MDA-468 cells): did not sensitize; sensitization to CH-11-induced apoptosis ([1]; PC-3, DU-145, T47D and OVCAR-3 cell lines, CH-11 100 ng/mL): sensitized; viability in the presence of Fas-activating antibody (CH-11) (PPC-1 cells): decreases in viability
